This note sets out measurements from patent US8921376B2, “Pyrrolopyridines useful as inhibitors of protein kinase” (Vertex Pharmaceuticals Incorporated, priority 2005, dated 2014).

Holding throughout (format): biochemical
One test has as its target ROCK I (Homo sapiens, UniProt Q13464). As to the kind of experiment: ROCK-I inhibition assay (radioactive enzyme assay, MBP substrate). On the procedure: Compounds were screened for their ability to inhibit ROCK using a standard radioactive enzyme assay. Assays were carried out in a solution containing 100 mM HEPES (pH 7.5), 10 mM MgCl2, 25 mM NaCl, 2 mM DTT, and 1.5% DMSO. Final substrate concentrations in the assay were 13 μM [γ-^33P] ATP (25 mCi ^33P ATP/mmol ATP, Perkin Elmer, Cambridge, Mass./Sigma Chemicals, St Louis, Mo.) and 27 μM Myelin Basic Protein (MBP). Final enzyme concentration in the assay was 5 nM ROCK. Assays were carried out at room temperature. 1.5 μl of DMSO stock containing serial dilutions of the compound of the present invention (concentrations ranging from 10 μM to 2.6 nM) was placed in a 96 well plate. 50 μl of Solution 1 (100 mM HEPES (pH 7.5), 10 mM MgCl2, […]) was added to the plate. The reaction was initiated by addition of 50 μl of Solution 2 (100 mM HEPES (pH 7.5), 10 mM MgCl2, 4 mM DTT, […] and 10 nM ROCK). After 2 hours the reaction was quenched with 50 μL of 30% trichloroacetic acid (TCA, Fisher) containing 9 mM ATP. Transfer of 140 μL of the quenched reaction to a glass fiber filter plate (Corning, Cat. No. 3511) was followed by washing 3 times with 5% TCA. 50 μl of Optima Gold scintillation fluid (Perkin Elmer) was added and the plates were counted on a Top Count (Perkin Elmer). After removing mean background values for all of the data points the data was fit using Prism software to obtain a Ki(app).

Another test has as its target T1, JAK3 (Homo sapiens, UniProt P52333).
T1 sequence (P52333 1-1124): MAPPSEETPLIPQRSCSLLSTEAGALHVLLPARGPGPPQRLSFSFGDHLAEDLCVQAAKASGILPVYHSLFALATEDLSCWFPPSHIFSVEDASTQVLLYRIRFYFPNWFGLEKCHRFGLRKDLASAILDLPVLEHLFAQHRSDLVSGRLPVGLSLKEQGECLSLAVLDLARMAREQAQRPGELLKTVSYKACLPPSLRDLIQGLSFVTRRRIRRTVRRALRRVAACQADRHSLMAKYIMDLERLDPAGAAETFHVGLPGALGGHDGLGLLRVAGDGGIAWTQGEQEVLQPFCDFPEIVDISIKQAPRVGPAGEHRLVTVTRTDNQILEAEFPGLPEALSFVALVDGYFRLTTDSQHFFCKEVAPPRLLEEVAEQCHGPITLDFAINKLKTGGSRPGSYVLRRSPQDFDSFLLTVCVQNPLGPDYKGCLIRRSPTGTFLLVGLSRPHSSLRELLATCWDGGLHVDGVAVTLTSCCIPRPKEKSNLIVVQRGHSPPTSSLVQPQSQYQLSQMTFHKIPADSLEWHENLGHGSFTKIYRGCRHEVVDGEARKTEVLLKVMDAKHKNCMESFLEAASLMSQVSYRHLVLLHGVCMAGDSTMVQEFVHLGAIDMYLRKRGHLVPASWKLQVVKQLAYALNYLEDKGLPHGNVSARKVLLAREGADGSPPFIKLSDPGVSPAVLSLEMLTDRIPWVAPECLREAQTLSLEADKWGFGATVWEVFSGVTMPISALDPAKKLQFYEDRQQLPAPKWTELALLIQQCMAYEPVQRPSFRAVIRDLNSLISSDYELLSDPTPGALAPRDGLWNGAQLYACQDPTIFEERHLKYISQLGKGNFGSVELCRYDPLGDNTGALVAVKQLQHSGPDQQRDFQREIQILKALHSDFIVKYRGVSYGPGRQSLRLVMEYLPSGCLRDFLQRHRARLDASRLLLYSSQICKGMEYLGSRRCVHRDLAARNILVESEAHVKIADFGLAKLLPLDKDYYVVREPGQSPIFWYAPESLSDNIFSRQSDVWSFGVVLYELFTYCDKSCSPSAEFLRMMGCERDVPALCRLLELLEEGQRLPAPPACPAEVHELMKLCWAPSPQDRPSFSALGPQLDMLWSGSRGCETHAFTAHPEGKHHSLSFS
As to the kind of experiment: JAK3 inhibition assay (33P incorporation into poly(Glu)4Tyr). How it is done:
(§1) Compounds were screened for their ability to inhibit JAK using the assay shown below. Reactions were carried out in a kinase buffer containing 100 mM HEPES (pH 7.4), 1 mM DTT, 10 mM MgCl2, 25 mM NaCl, and 0.01% BSA.
(§2) Substrate concentrations in the assay were 5 μM ATP (200 μCi/μmole ATP) and 1 μM poly(Glu)4Tyr. Reactions were carried out at 25° C. and 1 nM JAK3.
(§3) To each well of a 96 well polycarbonate plate was added 1.5 μl of a candidate JAK3 inhibitor along with 50/1 of kinase buffer containing 2 μM poly(Glu)4Tyr and 10 μM ATP. This was then mixed and 50 μl of kinase buffer containing 2 nM JAK3 enzyme was added to start the reaction. After 20 minutes at room temperature (25 C), the reaction was stopped with 50 μl of 20% trichloroacetic acid (TCA) that also contained 0.4 mM ATP. The entire contents of each well were then transferred to a 96 well glass fiber filter plate using a TomTek Cell Harvester. After washing, 60 μl of scintillation fluid was added and ^33P incorporation detected on a Perkin Elmer TopCount.

Another test concerns the target JAK2 (Homo sapiens, UniProt O60674). As to the kind of experiment: JAK2 inhibition assay (as Example 3 with JAK-2 enzyme). On the procedure: as §1, §2, §3
The assays were as described above in Example 3 except that JAK-2 enzyme was used, the final poly(Glu)4Tyr concentration was 15 μM, and final ATP concentration was 12 μM.

Setting [1] is: Table 6, enzyme inhibition data (Ki).
Where [2] appears, read: enzyme inhibition, Ki(app), Table 5.

Sequence of ROCK I (Q13464 whole entry): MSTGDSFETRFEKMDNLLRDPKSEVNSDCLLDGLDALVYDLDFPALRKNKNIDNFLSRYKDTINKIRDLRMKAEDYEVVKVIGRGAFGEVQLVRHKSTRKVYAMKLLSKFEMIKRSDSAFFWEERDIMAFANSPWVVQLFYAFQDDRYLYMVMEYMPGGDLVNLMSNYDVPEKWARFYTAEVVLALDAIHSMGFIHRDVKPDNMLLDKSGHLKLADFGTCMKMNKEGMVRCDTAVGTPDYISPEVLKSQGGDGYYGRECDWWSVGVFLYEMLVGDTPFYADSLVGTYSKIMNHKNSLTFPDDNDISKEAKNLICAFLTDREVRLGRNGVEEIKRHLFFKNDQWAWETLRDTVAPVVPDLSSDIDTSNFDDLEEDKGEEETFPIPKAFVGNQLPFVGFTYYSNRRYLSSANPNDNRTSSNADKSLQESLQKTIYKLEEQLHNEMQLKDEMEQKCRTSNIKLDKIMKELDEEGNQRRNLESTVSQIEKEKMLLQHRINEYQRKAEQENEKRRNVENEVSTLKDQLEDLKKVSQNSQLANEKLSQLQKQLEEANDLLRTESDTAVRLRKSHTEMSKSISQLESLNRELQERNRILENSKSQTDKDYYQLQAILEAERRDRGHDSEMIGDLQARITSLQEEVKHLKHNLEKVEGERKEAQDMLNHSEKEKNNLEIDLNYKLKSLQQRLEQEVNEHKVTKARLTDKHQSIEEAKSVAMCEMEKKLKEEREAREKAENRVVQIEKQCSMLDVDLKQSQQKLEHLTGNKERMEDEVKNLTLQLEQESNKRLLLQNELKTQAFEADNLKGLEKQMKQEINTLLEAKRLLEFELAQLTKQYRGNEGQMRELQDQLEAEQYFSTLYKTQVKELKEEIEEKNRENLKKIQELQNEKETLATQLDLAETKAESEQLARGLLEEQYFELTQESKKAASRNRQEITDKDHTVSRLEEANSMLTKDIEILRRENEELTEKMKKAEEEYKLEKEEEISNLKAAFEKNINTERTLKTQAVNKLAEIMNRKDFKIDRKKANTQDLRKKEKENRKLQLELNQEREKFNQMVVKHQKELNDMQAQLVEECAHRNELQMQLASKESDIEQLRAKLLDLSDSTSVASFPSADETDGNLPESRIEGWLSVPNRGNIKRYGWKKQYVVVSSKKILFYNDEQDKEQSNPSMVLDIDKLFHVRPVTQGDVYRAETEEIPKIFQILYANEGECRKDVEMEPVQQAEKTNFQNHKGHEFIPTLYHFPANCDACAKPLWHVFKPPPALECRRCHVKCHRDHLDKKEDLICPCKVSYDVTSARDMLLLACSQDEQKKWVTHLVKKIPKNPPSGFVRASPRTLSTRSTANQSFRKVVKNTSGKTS
Sequence of JAK2 (O60674 whole entry): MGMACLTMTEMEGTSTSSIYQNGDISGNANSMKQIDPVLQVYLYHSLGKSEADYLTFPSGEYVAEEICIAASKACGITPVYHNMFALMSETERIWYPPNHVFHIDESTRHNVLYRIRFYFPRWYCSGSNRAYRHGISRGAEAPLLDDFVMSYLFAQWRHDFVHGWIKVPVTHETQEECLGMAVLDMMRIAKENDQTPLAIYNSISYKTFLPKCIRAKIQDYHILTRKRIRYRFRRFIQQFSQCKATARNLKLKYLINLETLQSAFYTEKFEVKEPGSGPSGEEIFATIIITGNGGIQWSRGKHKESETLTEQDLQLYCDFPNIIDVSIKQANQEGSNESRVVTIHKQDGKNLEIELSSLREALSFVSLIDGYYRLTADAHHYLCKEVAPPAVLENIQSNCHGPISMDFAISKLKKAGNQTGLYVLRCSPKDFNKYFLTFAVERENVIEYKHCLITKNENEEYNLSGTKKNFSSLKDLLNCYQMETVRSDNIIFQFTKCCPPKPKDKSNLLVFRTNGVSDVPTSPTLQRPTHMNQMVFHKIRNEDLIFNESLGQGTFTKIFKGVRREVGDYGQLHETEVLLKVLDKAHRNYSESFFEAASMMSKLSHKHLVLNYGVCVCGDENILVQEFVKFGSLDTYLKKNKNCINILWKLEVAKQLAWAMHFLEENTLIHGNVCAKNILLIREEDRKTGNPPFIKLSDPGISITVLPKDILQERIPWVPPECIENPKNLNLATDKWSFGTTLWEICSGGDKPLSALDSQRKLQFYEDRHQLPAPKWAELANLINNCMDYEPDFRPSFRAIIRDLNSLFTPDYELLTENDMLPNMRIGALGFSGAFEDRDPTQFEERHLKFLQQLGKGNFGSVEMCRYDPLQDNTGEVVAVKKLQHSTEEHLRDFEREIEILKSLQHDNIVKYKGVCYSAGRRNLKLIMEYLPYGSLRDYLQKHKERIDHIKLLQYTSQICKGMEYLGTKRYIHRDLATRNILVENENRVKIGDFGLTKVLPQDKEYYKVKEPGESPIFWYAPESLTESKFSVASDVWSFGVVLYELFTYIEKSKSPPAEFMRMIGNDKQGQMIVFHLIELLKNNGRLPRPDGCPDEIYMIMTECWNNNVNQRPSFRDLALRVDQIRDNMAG

Regarding `O=C(c1cc(-c2ccnc3[nH]ccc23)c[nH]1)N1CCC(CO)CC1` [compound 363], the Ki was 0.5 to 5 µM on ROCK I (setting [1]), 0.5 to 5 µM at JAK3 (setting [1]) and < 0.5 µM on JAK2 (setting [1]).
With `CC1CC[C@@H](C)N1C(=O)c1csc(-c2ccnc3[nH]ccc23)n1` (stereo partly drawn) [compound 414], the Ki on ROCK I (setting [1]), at JAK3 (setting [1]) and at JAK2 (setting [1]) was < 0.5 µM in each case.
As to `C[C@H](Nc1ccnc(-c2ccnc3[nH]ccc23)n1)C(=O)NCC(F)(F)F` [compound 120, (S)-2-(2-(1H-pyrrolo[2,3b]pyridin-4-yl)pyrimidin-4-ylamino)-N-(2,2,2-trifluoroethyl)propanamide], the Ki at ROCK I (setting [2]) is 0.5 to 5 µM; at JAK3 (enzyme inhibition, Table 5), < 0.5 µM; at JAK2 (enzyme inhibition, Table 5), 0.5 to 5 µM.
In the case of `CC(C)CN(CC(C)C)C(=O)c1cc(-c2c(Cl)cnc3[nH]ccc23)c[nH]1` [compound 342], the Ki at ROCK I (setting [1]) is > 4 µM; at JAK3 (setting [1]) it was < 0.5 µM; on JAK2 (setting [1]) it was < 0.5 µM.
Regarding `c1cc(-c2ccnc3[nH]ccc23)nc(N2CCC[C@H]2CN2CCCC2)c1` [compound 54], the Ki on ROCK I (setting [2]) is 0.5 to 5 µM; on JAK3 (enzyme inhibition, Table 5), > 5 µM; on JAK2 (enzyme inhibition, Table 5), > 5 µM.
With `Clc1ccccc1-c1ccnc2[nH]ccc12` [compound 216], the Ki at ROCK I (setting [1]), at JAK3 (setting [1]) and on JAK2 (setting [1]) was 0.5 to 5 µM in each case.
As to `Cc1cccnc1-c1ccnc2[nH]ccc12` [compound 74, 4-(3-methylpyridin-2-yl)-1H-pyrrolo[2,3b]pyridine], the Ki is 0.5 to 5 µM at ROCK I (setting [2]); 0.5 to 5 µM on JAK3 (enzyme inhibition, Table 5); > 5 µM on JAK2 (enzyme inhibition, Table 5).
Turning to `CCCCN(CCC#N)C(=O)c1cc(-c2ccnc3[nH]ccc23)c[nH]1` [compound 303], the Ki at ROCK I (setting [1]), on JAK3 (setting [1]) and at JAK2 (setting [1]) was < 0.5 µM in each case.
Turning to `CCCNC(=O)c1ccccc1-c1ccnc2[nH]ccc12` [compound 258], the Ki at ROCK I (setting [1]) is > 4 µM; on JAK3 (setting [1]), > 5 µM; at JAK2 (setting [1]) it was > 5 µM.
Regarding `N#CCCN(Cc1cccnc1)C(=O)c1cc(-c2ccnc3[nH]ccc23)c[nH]1` [compound 299], the Ki at ROCK I (setting [1]), on JAK3 (setting [1]) and on JAK2 (setting [1]) was < 0.5 µM in each case.
In the case of `CC(C)(C#N)c1cccc(-c2ccnc3[nH]ccc23)n1` [compound 71, 2-(6-(1H-pyrrolo[2,3-b]pyridin-4-yl)pyridin-2-yl)-2-methylpropanetrile], the Ki is < 0.5 µM on ROCK I (setting [2]); < 0.5 µM at JAK3 (enzyme inhibition, Table 5); < 0.5 µM at JAK2 (enzyme inhibition, Table 5).
As for `Cc1n[nH]c(C)c1-c1ccnc2[nH]ccc12` [compound 124, 4-(3,5-Dimethyl-1H-pyrazol-4-yl)-1H-pyrrolo[2,3-b]pyridine], the Ki was 0.5 to 5 µM at ROCK I (setting [2]); 0.5 to 5 µM at JAK3 (enzyme inhibition, Table 5); > 5 µM at JAK2 (enzyme inhibition, Table 5).
`Clc1ccc(Cl)c(-c2ccnc3[nH]ccc23)c1` [compound 211]: the Ki at ROCK I (setting [1]) was < 0.5 µM; at JAK3 (setting [1]), 0.5 to 5 µM; at JAK2 (setting [1]), 0.5 to 5 µM.
Regarding `O=C(NCCC(F)(F)F)c1ccc(-c2ccnc3[nH]ccc23)cc1` [compound 268], the Ki at ROCK I (setting [1]), at JAK3 (setting [1]) and on JAK2 (setting [1]) was < 0.5 µM throughout.
Take `Clc1cnc2[nH]ccc2c1NC1CCCCC1` [compound 126, 5-chloro-N-cyclohexyl-1H-pyrrolo[2,3-b]pyridin-4-amine]: the Ki was < 0.5 µM on ROCK I (setting [2]); < 0.5 µM on JAK3 (enzyme inhibition, Table 5); < 0.5 µM at JAK2 (enzyme inhibition, Table 5).
For the compound `C[C@@H]1CC[C@H](C)N1C(=O)c1csc(-c2ccnc3[nH]ccc23)n1` [compound 417], the Ki at ROCK I (setting [1]), at JAK3 (setting [1]) and at JAK2 (setting [1]) was < 0.5 µM each time.
As for `CC(C)(C(=O)O)c1cccc(-c2ccnc3[nH]ccc23)n1` [compound 96, 2-(6-(1H-pyrrolo[2,3-b]pyridin-4-yl)pyridin-2-yl)-2-methylpropanoic acid], the Ki at ROCK I (setting [2]) is 0.5 to 5 µM; at JAK3 (enzyme inhibition, Table 5), 0.5 to 5 µM; on JAK2 (enzyme inhibition, Table 5), 0.5 to 5 µM.
Take `CCCOC(=O)N1CCCC(Nc2c(Cl)cnc3[nH]ccc23)C1` (stereo not drawn) [compound 174]: the figures for the Ki at ROCK I (setting [1]), at JAK3 (setting [1]) and on JAK2 (setting [1]) were 0.5 to 5 µM, < 0.5 µM and < 0.5 µM, respectively.
Regarding `c1cc(-c2cn[nH]c2)c2cc[nH]c2n1` [compound 250], the Ki at ROCK I (setting [1]), at JAK3 (setting [1]) and at JAK2 (setting [1]) was < 0.5 µM throughout.
Take `Oc1ccccc1-c1ccnc2[nH]ccc12` [compound 248]: the Ki on ROCK I (setting [1]), on JAK3 (setting [1]) and at JAK2 (setting [1]) was 0.5 to 5 µM each time.
As to `Clc1cnc2[nH]ccc2c1-c1cc2ccccc2s1` [compound 137], the values for the Ki on ROCK I (setting [1]), on JAK3 (setting [1]) and on JAK2 (setting [1]) were > 4 µM, < 0.5 µM and < 0.5 µM, respectively.
In the case of `c1ccc(Oc2ccccc2-c2ccnc3[nH]ccc23)cc1` [compound 240], the Ki at ROCK I (setting [1]) is > 4 µM; on JAK3 (setting [1]), > 5 µM; on JAK2 (setting [1]), > 5 µM.
Take `CC(C)CCNC(=O)c1csc(-c2ccnc3[nH]ccc23)n1` [compound 413]: the figures for the Ki at ROCK I (setting [1]), at JAK3 (setting [1]) and at JAK2 (setting [1]) were 0.5 to 5 µM, 0.5 to 5 µM and < 0.5 µM, respectively.
As to `CC(C)[C@@H]1CC[C@@H](C)C[C@H]1Nc1c(Cl)cnc2[nH]ccc12` [compound 151], the Ki at ROCK I (setting [1]) was > 4 µM; at JAK3 (setting [1]), 0.5 to 5 µM; on JAK2 (setting [1]) it was 0.5 to 5 µM.
On to `CCCCN(CC#N)C(=O)c1cc(-c2c(Cl)cnc3[nH]ccc23)c[nH]1` [compound 332], for which the Ki on ROCK I (setting [1]) was 0.5 to 5 µM; on JAK3 (setting [1]), < 0.5 µM; at JAK2 (setting [1]), < 0.5 µM.
`CCC(=O)N1CC[C@H](Nc2c(Cl)cnc3[nH]ccc23)C1` [compound 168]: the Ki on ROCK I (setting [1]) is > 4 µM; on JAK3 (setting [1]) it was 0.5 to 5 µM; on JAK2 (setting [1]) it was < 0.5 µM.
The matching figures for `CC[C@@H](C)NC(=O)c1cc(-c2ccnc3[nH]ccc23)c[nH]1` [compound 289]: < 0.5 µM, < 0.5 µM and < 0.5 µM.
The matching figures for `O=C(NCC(F)(F)F)c1ccc(-c2ccnc3[nH]ccc23)cc1` [compound 269]: < 0.5 µM, < 0.5 µM and < 0.5 µM.
The matching figures for `CN(C)C1CCN(C(=O)c2cc(-c3ccnc4[nH]ccc34)c[nH]2)C1` (stereo not drawn) [compound 371]: 0.5 to 5 µM, 0.5 to 5 µM and 0.5 to 5 µM.
